This passage reports MIC results from US6037341A, “Carbapenem derivatives” (Eisai Co., Ltd., priority 1994, dated 2000).

Assay type in all cases: cell-based
For one experiment, the system named is S. aureus E31295. In words: MIC, S. aureus E31295. The following applies: Staphylococcus aureus.
The next experiment relates to E. coli CS109. Description: MIC, E. coli CS109. The following applies: Escherichia coli.
The next experiment deals with H. influenzae IID1638. In words: MIC, H. influenzae IID1638. The following applies: Haemophilus influenzae.
Another experiment has as its system P. aeruginosa E03763. In words: MIC, P. aeruginosa E03763. The following applies: Pseudomonas aeruginosa.
Another experiment has as its system P. aeruginosa NCTC10490. In words: MIC, P. aeruginosa NCTC10490. The following applies: Pseudomonas aeruginosa.
The next experiment deals with P. aeruginosa PA01. In words: MIC, P. aeruginosa PA01. The following applies: Pseudomonas aeruginosa.
The subject of experiment [1] is P. aeruginosa E03441/SKR2-14. Description: MIC, P. aeruginosa E03441/SKR2-14. The following applies: Pseudomonas aeruginosa, E03441/SKR214.
Experiment [2] has as its system P. aeruginosa E03441/SKR2/I-2. In words: MIC, P. aeruginosa E03441/SKR2/I-2. The following applies: Pseudomonas aeruginosa.
For the next experiment, the system named is P. aeruginosa E03441/WT. Description: MIC, P. aeruginosa E03441/WT. The following applies: Pseudomonas aeruginosa.
Experiment [3] relates to P. aeruginosa E03441/SKR2. In words: MIC, P. aeruginosa E03441/SKR2. The following applies: Pseudomonas aeruginosa.
A further experiment relates to P. aeruginosa E03441/R24. Description: MIC, P. aeruginosa E03441/R24. The following applies: Pseudomonas aeruginosa.
The test system of the next experiment is P. aeruginosa E03402. Description: MIC, P. aeruginosa E03402. The following applies: Pseudomonas aeruginosa.

Structures are written as SMILES. In brackets after ≈: the same amount, converted by molar mass.

Consider `C[C@@H](O)[C@H]1C(=O)N2C(C(=O)O)=C(S[C@@H]3CN[C@H](C(O)C4CCNC4)C3)[C@H](C)[C@H]12` (stereo partly drawn), for which the MIC in the experiment with S. aureus E31295 is 0.1 µg/mL (≈ 0.243 µM); against E. coli CS109, 0.05 µg/mL (≈ 0.121 µM); in the experiment on H. influenzae IID1638 it was 0.2 µg/mL (≈ 0.486 µM); in the experiment with P. aeruginosa E03763, 0.8 µg/mL (≈ 1.94 µM); against P. aeruginosa NCTC10490, 0.1 µg/mL (≈ 0.243 µM); with P. aeruginosa PA01, 0.2 µg/mL (≈ 0.486 µM). Moreover, the MIC was 0.1 µg/mL (≈ 0.243 µM) in experiment [1]; 0.4 µg/mL (≈ 0.972 µM) in [2]; 0.2 µg/mL (≈ 0.486 µM) in the experiment with P. aeruginosa E03441/WT; 0.2 µg/mL (≈ 0.486 µM) in experiment [3]; 3.13 µg/mL (≈ 7.61 µM) against P. aeruginosa E03441/R24; 0.1 µg/mL (≈ 0.243 µM) against P. aeruginosa E03402.
